# Literature values, collected in patent US8877779B2 (priority 2007, dated 2014).
# Settings: Proc. Natl. Acad. Sci. U.S.A. 97: 4938-4943, 2000
smiles,measurement,value
O=C1NCN(c2ccccc2)C12CCN([C@@H]1CC[C@H]3CCCc4cccc1c43)CC2 [Ro64-6198],bioavailability (BA),4%
